Test results as given in US7402600B2, “Nitroderivatives of cardiovascular agents” (NicOx S.A., priority 1999, dated 2008).

Legend:
[1] = Test 4: inhibition of radical production from DPPH; conditions: tested substance 100 μM in methanol, 30 minutes, absorbance 517 nm
Protocol: Test 4 is a colorimetric test which must not be satisfied by the precursor of B or B1 (precursor of the X2 or X2a of the formulas (I) and (II) respectively). The inhibition of the production of radicals from DPPH (2,2-diphenyl-1-picryl-hydrazyl) is described in M. S. Nenseter et Al., Atheroscler. Thromb. 15, 1338-1344, 1995. 100 μM solutions in methanol of the tested substances are prepared, and an aliquot of each of said solutions is added to a DPPH solution in methanol 0.1 M. After having stored the solutions at room temperature away from light for 30 minutes, their absorbances are read at the wave length of 517 nm, together with that of the corresponding DPPH solution at the same concentration. The absorbance decrease with respect to that of the solution of DPPH at the same concentration of the test solutions is determined. The effectiveness of the tested compound in inhibiting formation of radicals by DPPH is expressed by the following formula: (1−AS/AC)×100 wherein AS and AC are respectively the absorbance values of the solution containing the test compound together with DPPH and of the solution containing only DPPH. Test 4 is satisfied when the inhibition is equal or greater than 50%.
Test 4: Inhibition of the Radical Production from DPPH of Some Substances Used as Precursors of B or B1 (Ref. Formulas I and II of the Invention)
The method is based on a calorimetric test in which DPPH (2,2-diphenyl-1-picryl-hydrazyl) is used as the compound-forming radicals (M. S. Nenseter et Al., Atheroscler. Thromb. 15, 1338-1344, 1995).
Solutions in methanol of the tested substances at a final concentration 100 μM are initially prepared. 0.1 ml of each of these solutions are added to aliquots of 1 ml of a methanol solution 0.1 M of DPPH and then the final volume is brought to 1.5 ml. After having stored the solutions at room temperature away from light for 30 minutes, the absorbance at the wave length of 517 nm is read. It is determined the absorbance decrease with respect to the absorbance of a solution containing the same concentration of DPPH.
The efficacy of the test compound to inhibit the production of radicals, or antiradical activity, is expressed by the following formula: (1−AS/AC)×100 wherein AS and AC are, respectively, the absorbance values of the solution containing the test compound together+DPPH and of the solution containing only DPPH.

[2] = Test 5: inhibition of radical production from FeII (deoxyribose degradation); conditions: 10^-4 M methanolic solution, 37° C. one hour, absorbance 532 nm
Protocol: Test 5 is a […] test wherein 0.1 ml aliquots of 10^−4 M methanolic solutions of the tested products are added to test tubes containing a solution formed by 0.2 ml of 2 mM desoxyribose, 0.4 ml of phosphate buffer pH 7.4 100 mM and 0.1 ml of 1 mM Fe^II(NH4)2(SO4)2 in 2 mM HCl. The test tubes are then maintained at 37° C. for one hour. Then in each test tube 0.5 ml of a 2.8% solution in water of trichloroacetic acid and 0.5 ml of an aqueous 0.1 M solution of thiobarbituric acid are added, in the order. A reference blank is formed by adding to a test tube containing only the above described aqueous solution of reactants 0.1 ml of methanol. The test tubes are closed and heated in an oil bath at 100° C. for 15 minutes. A pink coloration is developed the intensity of which is proportional to the quantity of desoxyribose undergone to radical oxidative degradation. The solutions are cooled at room temperature and their absorbances are read at 532 nm against the blank. The inhibition induced by the precursor of B or B1 or C=-Tc-Y—H in the confront of radical production by Fe^II is determined by means of the following formula: (1−As/Ac)×100 wherein As and Ac are respectively the absorbance values of the solution containing the tested compound+the iron salt and that of the solution containing only the iron salt, the compound meets test 5 when the inhibition percentage of radical production as above defined from the precursor of B or B1 or C=-Tc-Y—H is higher than or equal to 50%. […]
0.1 ml aliquots of 10^−4 M methanolic solutions of 4-thiazolidin carboxylic acid and 2-oxo-4-thiazolidin carboxylic acid are added to test tubes containing an aqueous solution formed by mixing 0.2 ml of 2 mM deoxyribose, 0.4 ml of buffer phosphate pH 7.4 100 mM and 0.1 ml of 1 mM Fe^II(NH4)2(SO4)2 in 2 mM HCl. […] A pink coloration develops the intensity of which is proportional to the quantity of deoxyribose undergone to radical oxidative degradation. The solutions are cooled at room temperature and their absorbances at 532 nm are read against the blank. […]

rats = assay: in vivo; conditions: rats not treated with NEM, single dose, s.c.
Protocol: (§1) The animals are sacrificed after 24 hours and then one proceeds to the evaluation of the damage to the gastrointestinal mucosa.

[3] = system: gastrointestinal mucosa, GPT, blood pressure; conditions: rat, in vivo
Protocol: The endothelial dysfunction is evaluated by determining the damage to the gastrointestinal mucosa, the hepatic damage and blood hypertension induced by administration of L-NAME.
The animals (rats) are divided in groups as herein below shown. The group receiving L-NAME is treated for 4 weeks with said compound dissolved at a concentration of 400 mg/litre in drinking water. The following groups are constituted (No. 10 animals for group):
(§2) • 1° group: only carrier (aqueous suspension 1% w/v of carboxymethylcellulose, dose: 5 ml/Kg when the drug is administered by os, phisiologic solution when administered parenterally), • 2° group: carrier+L-NAME, B) Groups Administered with the Drug: • 3° group: carrier+drug, • 4° group: carrier+drug+L-NAME.
The administration routes are those known for the drug, and can be the oral or subcutaneous, intraperiteneal, intravenous or intramuscular route. […] The drug is administered once a day for 4 weeks.
At the end of the four weeks treatment access to water is prevented and after 24 hours the animals are sacrificed.
One hour before the sacrifice blood-pressure is determined, and a blood pressure increase is taken as an evaluation of the damage to vascular endothelium. […] The hepatic damage is determined by evaluation of the glutamic-pyruvic transaminase (GPT increase) after sacrifice.
Test 3-Experimental in Vivo Model with N^w-nitro-L-arginine-methyl ester (L-NAME): Gastric Tolerability (Gastrointestinal Damage Incidence), Hepatic (GPT Dosage, Glutamic-pyruvic Transaminase) and Cardiovascular (Blood Pressure) Tolerability of Some Drugs Screened as Precursors of the Compounds of the Invention.
The endothelial dysfunction is evaluated by determining the damage induced by L-NAME administration to the gastrointestinal mucosa, the hepatic damage (GPT increase), and the vascular endothelium or cardiovascular damage as blood hypertension.
The animals (rats, average weight 200 g) are divided in groups as herein below described. The group receiving L-NAME is treated for 4 weeks with said compound dissolved at the concentration of 400 mg/litre in drinking water. The following groups (No. 10 animals for group) are constituted:
as §2, with “group: treatment:” for “group:”, “physiologic” for “phisiologic”, “by parenteral route),” for “administered parenterally),”, “Treated” for “Administered”
Each drug is administered once a day for 4 weeks.
At the end of the four weeks access to water is prevented and after 24 hours the animals are sacrificed.
One hour before the sacrifice blood pressure is determined and a blood pressure increase is taken as an indication of a damage being occurred to vascular endothelium.
The hepatic damage is determined by evaluation after the sacrifice of the glutamic-pyruvic transaminase (GPT increase).
The % gastric lesions have been determined as in Test 1.

gastrointestinal mucosa = assay: Test 1 (NEM): gastric tolerability of precursor drugs in rats treated or not with N-ethylmaleimide; conditions: rats, sacrifice after 24 hours
Protocol: The animals (rats) are distributed in the following groups (no. 10 animals for group):
• 1° group: treatment: only carrier (aqueous suspension 1% w/v of carboxymethylcellulose, dose: 5 ml/Kg when the drug is administered by os, or a physiologic solution when parenterally administered, i.e. by subcutaneous, intraperitoneal, intravenous or intramuscular route), • 2° group: treatment: carrier as above defined+NEM, B) Groups Treated with the Drug: • group I: treatment: carrier+drug, • group II: treatment: carrier+drug+NEM.
The administration routes are those known for the drug, and can be the oral or subcutaneous, intraperitoneal, intravenous or intramuscular route.
as §1
Test 1—Experimental Model in Vivo with N-ethylmaleimide (NEM): Study of the Gastric Tolerability of Some Drugs Screened as Precursors of the Compounds of the Invention.
The animals (rats, weight about 200 g) are distributed in the following groups (No. 10 animals for group):
• 1° group: treatment: only carrier (aqueous suspension 1% w/v of carboxymethylcellulose, dose: 5 ml/Kg when the drug is administered by os, physiologic solution when by parenteral route), • 2° group: treatment: carrier+NEM B) Groups Administered with Each Drug: • group I: treatment: carrier+drug, • group II: treatment: carrier+drug+NEM.
The drug is administered one hour later, in suspension in the carrier. Animals are sacrificed after 24 hours and evaluation of the damage to the gastrointestinal mucosa is made by counting the number of rats, inside each group, with lesions to the stomach at a visual inspection. The total number of said rats is then divided by the total number of rats of the group and multiplied by 100.

gastric mucosa = assay: Example F7: gastric tolerability after oral administration in NEM-treated rats; type: in vivo; conditions: rats all receiving NEM, p.o., 0.02 mmoles/Kg of each component
Protocol: Example F1 was repeated with four groups of rats (each group of ten animals), all of them receiving NEM, and orally administered as it follows: • a. control group: the vehicle formed of an aqueous suspension 1% w/v of carboxymethylcellulose, • b. one group (group b—comparative) administered at the same time with 5 mg/Kg (0.02 mmoles/Kg) of flurbiprofen+2.7 mg/Kg (0.02 mmoles/Kg) of 4-thiazolidin carboxilic acid in the same above vehicle, • c. one group (group c—comparative) administered at the same time with 7.4 mg/Kg (0.02 mmoles/Kg) of 4-(nitroxy)butyl ester of flurbiprofen, synthetized according to the method described in WO 94/12463, +2.7 mg/Kg (0.02 mmoles/Kg) of 4-thiazolidin carboxilic in the same above vehicle, • d. one group (group d) administered with 9.8 mg/Kg (0.02 mmoles/Kg) of 3-[2-fluoro-α-methyl-(1,1′-biphenyl)-4-acetyl]thiazolidin-4-carboxylic acid 4-(nitroxy)butyl ester synthetized as from Ex. 1(indicated as NO-Flurbiprofen in Table VII), in the above same vehicle.

O=C(O)CCC(=O)O [succinic acid]
% inhibition radical production from DPPH [1]: 0%
% Radical Inhibition from Fe^II [2]: 90%

CCCCC(C)(O)C/C=C/[C@H]1[C@H](O)CC(=O)[C@@H]1CCCCCCC(=O)OC (mixture of isomers) [Misoprostol]
maximum tolerated dose (dose (mg/Kg)/admin. route) (rats): 0.5/s.c. mg/Kg
GPT % without L-NAME [3]: 100%
Gastroenteropathy % without L-NAME ([3]; 4 weeks): 0%
Gastro-enteropathy (% incidence) with NEM (gastrointestinal mucosa; NEM 25 mg/kg s.c. one hour before drug at maximum tolerated dose): 0%
Gastro-enteropathy (% incidence) without NEM (gastrointestinal mucosa; single maximum tolerated dose, without NEM): 0%

N[C@@H](Cc1c[nH]cn1)C(=O)O [histidine]
% inhibition radical production from DPPH [1]: 0%
% Radical Inhibition from Fe^II [2]: 90%

CC(C(=O)N1CSCC1C(=O)OCCCCO[N+](=O)[O-])c1ccc(-c2ccccc2)c(F)c1 (stereo not drawn) [Example 1, 3-[2-fluoro-α-methyl-(1,1′-biphenyl)-4-acetyl]thiazolidin-4-carboxylic acid 4-(nitroxy)butyl ester]
Gastropathy % incidence (gastric mucosa): 0%

O=C(O)C1CSCN1 (stereo not shown) [4-thiazolidin carboxylic acid]
% inhibition radical production from DPPH [1]: 0%
% inhibition radical production from DPPH ([1]; listed as 4-Thiazolidincarboxylic acid): does not inhibit at any extent
% Radical Inhibition from Fe^II [2]: 100%
